These results are taken from US11932634B2 (Gilead Sciences, Inc., priority 2021, dated 2024).

The target of one test is T1, human DGKα (Homo sapiens, UniProt P23743).
T1 construct: purchased Carna Biosciences'; inferred from the same paragraph's 'obtained from Carna Biosciences')
In words: DGKα Biochemical Activity Assay (ADP-Glo).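 Note: recombinant enzyme converting diacylglycerol in lipid micelles with ATP, ADP formed detected by luminescence, IC50 from a four-parameter nonlinear fit, geometric mean across experiments.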 For orientation: ADP-Glo first removes unused ATP, then detects ADP through luciferase.

For test [1], the system named is Jurkat NFκB-luciferase cells. In words: Jurkat NFκB-Luciferase Assay.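 Note: bioluminescence read-out normalized to DMSO basal activation and to maximum enhancement at 1 µM compound, rising signal indicating stronger T-cell activation through DGKα inhibition.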 The note with it: Homo sapiens; Jurkat NFκB-luciferase cells activated with anti-CD3 antibody (OKT3), 2.5 hrs at 37° C., One-Glo Ex; geometric mean; read-out: DGK NFKb Luciferase EC50. The test is classed as cell-based.

T1 sequence (P23743 whole entry): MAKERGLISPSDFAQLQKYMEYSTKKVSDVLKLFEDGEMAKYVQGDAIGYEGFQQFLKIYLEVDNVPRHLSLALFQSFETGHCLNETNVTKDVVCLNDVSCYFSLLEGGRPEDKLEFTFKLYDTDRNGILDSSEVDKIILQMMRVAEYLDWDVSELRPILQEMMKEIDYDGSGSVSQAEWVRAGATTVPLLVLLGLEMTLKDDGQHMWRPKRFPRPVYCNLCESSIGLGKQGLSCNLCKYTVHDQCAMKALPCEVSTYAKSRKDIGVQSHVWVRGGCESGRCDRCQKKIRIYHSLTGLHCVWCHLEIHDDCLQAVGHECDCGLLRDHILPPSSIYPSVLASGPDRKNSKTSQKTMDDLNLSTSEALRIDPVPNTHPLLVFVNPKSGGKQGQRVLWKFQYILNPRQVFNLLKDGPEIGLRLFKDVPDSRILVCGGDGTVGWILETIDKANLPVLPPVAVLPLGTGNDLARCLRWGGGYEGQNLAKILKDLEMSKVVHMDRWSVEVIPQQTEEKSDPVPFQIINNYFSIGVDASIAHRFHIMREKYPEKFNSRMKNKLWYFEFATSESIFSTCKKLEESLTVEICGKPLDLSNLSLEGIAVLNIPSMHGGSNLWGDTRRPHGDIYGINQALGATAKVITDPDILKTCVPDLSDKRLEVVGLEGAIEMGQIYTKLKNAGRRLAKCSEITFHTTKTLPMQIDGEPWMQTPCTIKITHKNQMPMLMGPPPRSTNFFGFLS
From the text for human DGKα: Alternatively, the enzymatic activity of human DGKα was monitored in a biochemical assay in the presence or absence of compounds and using micelles containing 18:1 Diacylglycerol (DAG), 16:0-18:1 PS (POPS) and Octylglucoside as substrate. DGKα activity led to conversion of DAG and ATP to Phosphatidic Acid (PA) and ADP. Levels of ADP were monitored by bioluminescence using the ADP-Glo Kinase Assay (Promega) and were indicative of DGKα activity.
Ten nanoliters of test compound dissolved in DMSO at various concentrations were dispensed into a 384-well low volume nonbinding service white plates (Corning #3824) using a Labcyte Echo instrument. Recombinant DGKα Biosciences) in assay buffer (5 μL in 50 mM MOPS [3-(N-morpholino) propanesulfonic acid], pH 7.2; 0.0025% Triton X-100; 1 mM dithiothreitol; 5 mM MgCl2, 200 μM ATP) was added to the compound-containing plate and was incubated for 15 minutes at 25° C. A substrate solution (5 μL in 1.7 mM 1,2-dioleoyl-sn-glycerol [18:1 DAG], 13.5 mM 1-palmitoyl-2-oleoyl-sn-glycero-3-phospho-L-serine [16:0-18:1 PS](POPS), 2 μM CaCl2), 100 mM Octylglucoside (OG), 1 mM DTT) (obtained from Carna Biosciences) diluted in DGK ALPHA assay buffer was then added to start the reaction. Final concentrations were 1 nM DGKα, 100 μM ATP, 1 μM calcium chloride, 0.85 mM 1,2-dioleoyl-sn-glycerol (18:1 DAG), 6.75 mM 1-palmitoyl-2-oleoyl-sn-glycero-3-phospho-L-serine (16:0-18:1 PS) (POPS), 1 μM CaCl2), 50 mM Octylglucoside (OG) and 5 mM MgCl2. The reaction mixture was incubated at 25° C. for 1 hour. ADP-Glo Reagent (10 μL, 10 mM Mg added) provided by the kit was added to each well and incubated at 25° C. for 40 minutes. Then, 20 μL of Kinase Detection Reagent was added and incubated at 25° C. for 40 minutes. Luciferase activity of each well was measured via luminescence on an Envision plate reader (PerkinElmer).
Least squares curve fittings were performed using a four-parameter variable slope nonlinear regression model. […] IC50 values from multiple experiments were averaged by geometric mean and the standard deviation was calculated.

A word on the IC50: it is the point on the concentration scale where inhibition reaches its midpoint. In general, EC50 refers to the midpoint of the concentration-response curve. Take `CN(c1cccc(-c2cnc(C3CC3)cn2)c1)c1nc(=O)n(C)c2cc(Cl)ccc12` [Example 11, 7-chloro-4-[3-(5-cyclopropylpyrazin-2-yl)-N-methyl-anilino]-1-methyl-quinazolin-2-one]: half-maximal inhibition against human DGKα (IC50) was put at 4.02 nM. Besides, the EC50 in test [1] was found to be 0.709 nM.

Compound `CN(c1cncc(C#CC2(C(F)(F)F)CC2)n1)c1nc(=O)n(C)c2cc(Cl)ccc12` [Example 12, 7-chloro-1-methyl-4-[methyl-[6-[2-[1-(trifluoromethyl)cyclopropyl]ethynyl]pyrazin-2-yl]amino]quinazolin-2-one] came in with an IC50 on human DGKα of 2.91 nM. The EC50 in test [1] is 1.04 nM.

Compound `CN(c1cncc(C#CC2(C(F)(F)F)CC2)n1)c1nc(=O)[nH]c2cc(Cl)ccc12` [Example 13, 7-chloro-4-[methyl-[6-[2-[1-(trifluoromethyl)cyclopropyl]ethynyl]pyrazin-2-yl]amino]-1H-quinazolin-2-one] registered an IC50 against human DGKα of 20.6 nM. For the same compound, the EC50 in test [1] was 1.16 nM.

The compound `CN(c1cc(F)cc(C#CC2(C(F)(F)F)CC2)c1)c1nc(=O)[nH]c2cc(Cl)ccc12` [Example 14, 7-chloro-4-[3-fluoro-N-methyl-5-[2-[1-(trifluoromethyl)cyclopropyl]ethynyl]anilino]-1H-quinazolin-2-one] registered an IC50 against human DGKα of 138 nM. In addition, in test [1], the EC50 was determined as 0.788 nM.

At human DGKα, `[2H]C([2H])([2H])n1c(=O)nc(N(C)c2cc(F)cc(C#CC3(C(F)(F)F)CC3)c2)c2ccc(Cl)cc21` [Example 15, 7-chloro-4-[3-fluoro-N-methyl-5-[2-[1-(trifluoromethyl)cyclopropyl]ethynyl]anilino]-1-(trideuteriomethyl)quinazolin-2-one] came in with an IC50 of 27.3 nM. Moreover, the EC50 in test [1] came out at 0.557 nM.

Consider `O=c1nc(N(CC(F)F)c2cc(F)cc(C#CC3(C(F)(F)F)CC3)c2)c2c(F)cccc2[nH]1` [Example 16, 4-[N-(2,2-difluoroethyl)-3-fluoro-5-[2-[1-(trifluoromethyl)cyclopropyl]ethynyl]anilino]-5-fluoro-1H-quinazolin-2-one], for which the concentration for half-maximal inhibition (IC50) on human DGKα worked out at 252 nM. For the same compound, in test [1], the EC50 amounted to 1.19 nM.

Consider `O=c1nc(N(CC(F)F)c2cc(F)cc(-c3cnc(C4CC4)cn3)c2)c2c(F)cccc2[nH]1` [Example 17, 4-[3-(5-cyclopropylpyrazin-2-yl)-N-(2,2-difluoroethyl)-5-fluoro-anilino]-5-fluoro-1H-quinazolin-2-one], for which the IC50 against human DGKα came to 30.1 nM. Further, the EC50 in test [1] amounted to 1.23 nM.

In the case of `O=c1nc(N(CC(F)F)c2cc(F)cc(-c3ccc(C(F)F)nc3)c2)c2c(F)cccc2[nH]1` [Example 18, 4-[N-(2,2-difluoroethyl)-3-[6-(difluoromethyl)-3-pyridyl]-5-fluoro-anilino]-5-fluoro-1H-quinazolin-2-one], the IC50 on human DGKα is 54.4 nM. The EC50 in test [1] worked out at 2.63 nM.

On to `O=c1nc(N2CCCc3c(C#CC4(C(F)(F)F)CC4)cccc32)c2c(F)cccc2[nH]1` [Example 19, 5-fluoro-4-[5-[2-[1-(trifluoromethyl)cyclopropyl]ethynyl]-3,4-dihydro-2H-quinolin-1-yl]-1H-quinazolin-2-one], for which the IC50 at human DGKα came to 62.5 nM. In test [1], the EC50 came to 0.63 nM.

`CCn1c(=O)nc(N2CCCc3c(C#CC4(C(F)(F)F)CC4)cccc32)c2c(F)cccc21` [Example 20, 1-ethyl-5-fluoro-4-[5-[2-[1-(trifluoromethyl)cyclopropyl]ethynyl]-3,4-dihydro-2H-quinolin-1-yl]quinazolin-2-one]: half-maximal inhibition at human DGKα (IC50) required 293 nM. In addition, the EC50 in test [1] was 0.875 nM.

On human DGKα, `[2H]C([2H])([2H])n1c(=O)nc(N2CCCc3c(C#CC4(C(F)(F)F)CC4)cccc32)c2c(F)cccc21` [Example 21, 5-fluoro-1-(trideuteriomethyl)-4-[5-[2-[1-(trifluoromethyl)cyclopropyl]ethynyl]-3,4-dihydro-2H-quinolin-1-yl]quinazolin-2-one] came in with an IC50 of 11.3 nM. Besides, in test [1], the concentration giving a half-maximal response (EC50) is 0.232 nM.
